Series [1] deals with E. coli. The conditions noted are these: reported; cited from earlier work. From the text: LfcinB (20–25): RRWQWR is the shortest sequence derived from LfcinB with antibacterial, antifungal, and anticancer activity. In similar way, Buforin II (BFII) is an antimicrobial peptide with activity against Gram-positive and Gram-negative bacteria as well as fungi. Palindromic sequences have been designed from the 4-residue motif (RLLR) of Buforin II, and their antibacterial activity has been evaluated against Gram-negative and Gram-positive strains. The palindrome [RLLR]5: […] was reported to have an MIC of 0.7 µM against E. coli. Chimeras containing the minimum motif RRWQW ...

The test system of series [2] is C. albicans 256 HUSI-PUJ. Format: cell-based, Candida albicans. The settings on record: for MICa: MIC of the chimeric peptide alone: 256 HUSI-PUJ. The protocol: (§1) The in vitro interactions between the peptides (C6, C8, and C9) and the FLC drug were evaluated in a checkerboard assay, as previously described by Cokol et al.. Briefly, each isolate was prepared by picking colonies from an overnight culture in SBD at 37 °C and suspended in a sterile normal saline PBS buffer. The fungal inoculum was adjusted to 0.5 MacFarland and the inoculum was adjusted to 0.5–2.5 × 10^3 CFU/mL. The drug-peptide combinations were formed over a range of concentrations: 0 (control) and 0.06 to 2 times the MIC [51]. The fractional inhibitory concentration index (FICI) was calculated as follows:
(§2) FICI=CML peptide in combination/CMI peptide alone+CML FLC in combination/CMI FLC alone
(§3) The calculated FICI was reported as synergy with values FICI ≤ 0.5, additive FICI > 0.5–1, indifference FICI > 1–4, and antagonism FICI ≥ 4 [52].
(§4) A synergistic effect was considered to be when the effect of the combination exceeded the effects of the individual components. An additive effect was when the effect of the combination was equal to the sum of the effects of the individual components.

Series [3] has as its system C. albicans 256. The format is cell-based, Candida albicans. The conditions noted are these: for Inhibition of growth: 256, 48 h; for Time-kill result: Fungicide concentration / Time-kill result: Fungistatic concentration: after 48 h of incubation, RPMI 1640, 37 °C, Bioscreen C. The protocol:
(§5) A time-kill kinetic assay was carried out according to the method previously described by Pfaller and coworkers with minor modifications. The peptides (C5, C6, C8, and C9) diluted in RPMI were tested at a range of concentrations: 0 (control), 0.2, 0.5, 1, and 2 times the MIC value for each strain. The isolates were subcultured on SBD, and then an inoculum was adjusted to a 0.5–2.5 × 10^3 CFU/mL in an RPMI 1640 medium. Yeast inoculum (150 uL) was added to a 100-well plate containing serial dilutions of the peptides. The plates were incubated with agitation at 37 °C in a plate reader (Bioscreen C MBR automated turbidometric analyzer, Growth Curves Ltd., Helsinki, Finland), which takes hourly absorbance readings. Moreover, fluconazole MICs were used as a control. The readings were analyzed with Bioscreen software (Growth Curves USA, Piscataway, NJ, USA) and GraphPad Prism 8.0.1 (GraphPad Soft-ware, San Diego, CA, USA). Statistical comparisons were made using an analysis of variance (two-way ANOVA) followed by a Tukey–Kramer post hoc test. P values less than 0.005 were considered significant. […] Moreover, previously determined FLC MICs (data not shown) were used as a control.

In series [4] the test system is C. albicans SC5314. Format: cell-based, Candida albicans. The conditions noted are these: for Inhibition of growth: SC5314, 48 h; for Time-kill result: Fungicide concentration / Time-kill result: Fungistatic concentration: after 48 h of incubation, RPMI 1640, 37 °C, Bioscreen C. The protocol:
as §5

In series [5] the test system is C. glabrata ATCC 2001. Format: cell-based. The protocol:
as §1, §2, §3, §4

The subject of series [6] is C. auris 001 HUSI-PUJ. The format is cell-based. The method, then:
as §1, §2, §3, §4

Series [7] deals with C. auris 537 HUSI-PUJ. Format: cell-based. The method, then: as §1, §2, §3, §4
Series [8] has as its system C. glabrata 1875 CHU-PUJ. The format is cell-based. The method, then:
as §1, §2, §3, §4

Series [9] has as its system human red blood cells. On the set-up: method as in PMID 33369144. The conditions noted are these: cited from earlier work.
In series [10] the test system is C. auris 537. Format: cell-based. The settings on record: 537, 48 h. The protocol:
(§6) Antifungal susceptibility testing was carried out using the broth microdilution (BMD) method, following the CLSI M27-A3 guidelines with slight modifications. Briefly, cells (0.5–2.5 × 10^3 CFU/mL) were incubated with peptides (200, 100, 50, 25, 12.5, and 6.25 µg/mL) at 37 °C for 48 h. MICs were visualized and densitometry (595 nm, microplate reader, Bio-Rad, ᵢMark^TM) was used to determine the lowest concentration of peptide that caused a significant decrease (MIC/2 or ≥50%) compared with the growth control (cells incubated in absence of peptide) (n = 3). In order to verify that the peptides were able to kill the yeast cells, the plates were also evaluated for minimum fungicidal concentration (MFC). Briefly, aliquots from each well from susceptibility testing assays were transferred to plates containing Sabouraud dextrose agar (SDA), which were then incubated at 37 °C for 24 h. The highest dilution with no growth on the agar plate was considered to be the MFC.

Series [11] relates to C. auris 001. Format: cell-based. The settings on record: 001, 48 h. The protocol:
as §6

In series [12] the test system is C. glabrata 1875. The format is cell-based. The settings on record: 1875, 48 h. The method, then: as §6
Series [13] relates to C. albicans ATCC SC5314. The format is cell-based, Candida albicans. The protocol: as §6
The subject of series [14] is C. albicans 256 HUSI-PUJ. The format is cell-based, Candida albicans. The conditions noted are these: for MFC: 24 h; for MIC: 48 h. The method, then:
as §6

Series [15] has as its system C. albicans ATCC SC5314. Format: cell-based, Candida albicans. The protocol:
as §1, §2, §3, §4
The source holds these as a separate data set.

[16] abbreviates: checkerboard run with C6, unit from footnote of Table 4.
The mark [17] stands for this setting: FLC-sensitive reference strain, broth microdilution CLSI M27-A3, 37 °C, 48 h, ≥50% decrease vs growth control, n = 3.
Where [18] appears, read: FLC-resistant clinical isolate, broth microdilution CLSI M27-A3, 37 °C, ≥50% decrease vs growth control, n = 3.
Where [19] appears, read: fungistatic = growth inhibition >70% for 48 h.
Where [20] appears, read: time-kill curve, peptide at 12.5 µg/mL (4 µM).

Converted amounts (≈) assume the structure as drawn. Like-named read-outs stand apart in the source and are kept apart here. Positions of bridges follow the written chain, without caps; N, C: chain ends. Non-standard residues stand in square brackets, D forms with d. Residues, ends and D or L forms follow the SMILES beside them. Chains are numbered I, II in the order given. No end group written: not given here. Ahx = NCCCCCC(=O)O

Turning to “RLLRRLLRRLLRRLLRRLLR [[RLLR]5, palindrome designed from the RLLR motif of Buforin II]”, the MIC in series [1] was 0.7 µM.

Consider `CC(C)C[C@H](NC(=O)[C@H](CC(C)C)NC(=O)[C@H](CCCNC(=N)N)NC(=O)[C@H](CCCNC(=N)N)NC(=O)[C@H](CC(C)C)NC(=O)[C@H](CC(C)C)NC(=O)[C@H](CCCNC(=N)N)NC(=O)CCCCCNC(=O)[C@H](CCCCN)NC(=O)[C@H](Cc1c[nH]c2ccccc12)NC(=O)[C@H](CCC(N)=O)NC(=O)[C@H](Cc1c[nH]c2ccccc12)NC(=O)[C@H](CCCCN)NC(=O)[C@@H](N)CCCCN)C(=O)N[C@@H](CCCNC(=N)N)C(N)=O` [C6] (H-KKWQWK[Ahx]RLLRRLLR-NH2), for which the “MICa: MIC of the chimeric peptide alone” value came to 100 µg/mL in series [2]; 100 µg/mL in series [5] (ATCC 2001); 400 µg/mL in series [6] (001 HUSI-PUJ); 400 µg/mL in [7] (537 HUSI-PUJ); 400 µg/mL in [8] (1875 CHU-PUJ). Besides, the Inhibition of growth entry in series [3] and in series [4] was “more than 90%” in each case. Also, the Hemolytic effect in series [9] was 2–4%. For the same compound, the MIC in series [10] worked out at 96 µM (≈ 201 µg/mL); in series [11], 96 µM (≈ 201 µg/mL); in [12], 96 µM (≈ 201 µg/mL); in [13] (ATCC SC5314, 48 h), 24 µM; in series [14] (256 HUSI-PUJ) it was 24 µM. Moreover, the MFC is given as 48 µM in series [13] (ATCC SC5314, 24 h) and 48 µM in series [14] (256 HUSI-PUJ).

As for `OC(Cn1cncn1)(Cn1cncn1)c1ccc(F)cc1F` [FLC, fluconazole, reference compound], the “MICb: MIC of fluconazole alone” value is given as 0.3 µg/mL in series [5] (setting [16]), 32 µg/mL in series [6] (setting [16]), 64 µg/mL in series [7] (setting [16]) and 4 µg/mL in [8] (setting [16]). Also, the MIC stood at 1 µg/mL in series [13] (setting [17]) and 64 µg/mL in [14] (setting [18]).

As to `CC(C)C[C@H](NC(=O)[C@H](CC(C)C)NC(=O)[C@H](CCCNC(=N)N)NC(=O)[C@H](CCCNC(=N)N)NC(=O)[C@H](CC(C)C)NC(=O)[C@H](CC(C)C)NC(=O)[C@H](CCCNC(=N)N)NC(=O)CCCCCNC(=O)[C@H](CCCCNC(=O)[C@H](CCCNC(=N)N)NC(=O)[C@H](Cc1c[nH]c2ccccc12)NC(=O)[C@H](CCC(N)=O)NC(=O)[C@H](Cc1c[nH]c2ccccc12)NC(=O)[C@H](CCCNC(=N)N)NC(=O)[C@@H](N)CCCNC(=N)N)NC(=O)[C@H](CCCNC(=N)N)NC(=O)[C@H](Cc1c[nH]c2ccccc12)NC(=O)[C@H](CCC(N)=O)NC(=O)[C@H](Cc1c[nH]c2ccccc12)NC(=O)[C@H](CCCNC(=N)N)NC(=O)[C@@H](N)CCCNC(=N)N)C(=O)N[C@@H](CCCNC(=N)N)C(N)=O` [C9] (I: H-RRWQWRK[Ahx]RLLRRLLR-NH2 / II: H-RRWQWR; amide I:7-II:C; N-terminus assumed), the “MICa: MIC of the chimeric peptide alone” value in series [15] (ATCC SC5314) was 100 µg/mL; in series [2] it was 50 µg/mL. In addition, the “Effect of the combination with FLC (by FICI)” value in series [15] (checkerboard) is reported as “synergistic”. Also, the entries for the “MICa/A: factor by which the chimera is potentiated in combination” value in series [15] (peptide combined with FLC) and in series [2] (peptide combined with FLC) were 4 and 2, respectively. Also, the Inhibition of growth entry in series [3] and in series [4] was “more than 90%” in each case. The “Time-kill result: Fungicide concentration” value turned out to be 25 µg/mL in series [3] (fungicidal = yeast kill ≥99%), 8 µM in series [3] (value in brackets), 25 µg/mL in series [4] (fungicidal = yeast kill ≥99%) and 8 µM in series [4] (value in brackets). Also, the “Time-kill result: Fungistatic concentration” value is listed as 13 µg/mL in series [3] (setting [19]), 4 µM in [3] (value in brackets), 13 µg/mL in series [4] (setting [19]) and 4 µM in [4] (value in brackets). The “Incubation time up to which strain growth was completely inhibited” value in series [3] (setting [20]) and in series [4] (setting [20]) was “approximately 20 h” in each case. The MFC in [13] (ATCC SC5314, 24 h) is 15 µM; in series [13] (FLC-sensitive reference strain, aliquots plated on SDA, 37 °C, 24 h, no growth), 50 µg/mL; in series [14] (256 HUSI-PUJ), 15 µM; in series [14] (FLC-resistant clinical isolate, aliquots plated on SDA, 37 °C, no growth), 50 µg/mL. The MIC was 15 µM in series [13] (ATCC SC5314, 48 h); 50 µg/mL in series [13] (setting [17]); 15 µM in series [14] (256 HUSI-PUJ); 50 µg/mL in [14] (setting [18]).

`CC(C)C[C@H](NC(=O)[C@H](CC(C)C)NC(=O)[C@H](CCCCN)NC(=O)[C@H](CCCCN)NC(=O)[C@H](CC(C)C)NC(=O)[C@H](CC(C)C)NC(=O)[C@H](CCCCN)NC(=O)CCCCCNC(=O)[C@H](CCCNC(=N)N)NC(=O)[C@H](Cc1c[nH]c2ccccc12)NC(=O)[C@H](CCC(N)=O)NC(=O)[C@H](Cc1c[nH]c2ccccc12)NC(=O)[C@H](CCCNC(=N)N)NC(=O)[C@@H](N)CCCNC(=N)N)C(=O)N[C@@H](CCCCN)C(N)=O` [C5] (H-RRWQWR[Ahx]KLLKKLLK-NH2): the Inhibition of growth result in [3] and in series [4] was “more than 90%” throughout. In series [9], the Hemolytic effect was 2–4%. Moreover, the MFC worked out at 97 µM in series [13] (ATCC SC5314, 24 h) and 97 µM in series [14] (256 HUSI-PUJ).

For RLLRRRWQWR-NH2 [C3], in [9], the Hemolytic effect was 2–4%. The MFC was 131 µM in series [13] (ATCC SC5314, 24 h) and 131 µM in series [14] (256 HUSI-PUJ). In addition, the MIC in series [13] (ATCC SC5314, 48 h) is given as 66 µM; in [14] (256 HUSI-PUJ) it was 66 µM.

As usually defined, the MIC is the least concentration at which growth counts as inhibited. Usually MFC stands for the smallest concentration meeting the test's criterion for killing the fungus. Higher therefore signals less potent killing.

Values taken from publication PMC9686985, “Chimeric Peptides Derived from Bovine Lactoferricin and Buforin II: Antifungal Activity against Reference Strains and Clinical Isolates of Candida spp” (Antibiotics, 2022).
